Experimental data published in patent publication EP0555116B1, “Compositions based on antiseptics and their applications” (HUTCHINSON, priority 1992, dated 1993).
Where “and” joins values, the source holds several entries; their conditions need not be identical. Equal entries are not always repeated.

Experiments:
[1] = system: virus HBV; assay: In vivo protection test in ducks (I.V.), inoculum 2.10^7 vge/canard; conditions: Bardac® 0,1 %, voie I.V.
Description: II - Essais in vivo chez le canard (voie I.V.).
• Bardac® 0,02 % (dose 100 fois inférieure à celle qui est efficace in vitro pour le Bardac® seul) - CHG 0,025 % contre un inoculum à 2.10^7 vge/canard protège 3/3 canards (figure 2). • Bardac® 0,1 % (dose 5 fois plus forte que dans une composition conforme à l'invention pour obtenir une protection équivalente) contre un inoculum à 2.10^7 vge/canard (vge = viral genoma equivalent) protège 4/4 canards (figure 3).
La figure 1 correspond à un témoin d'infection : 4/4 canards inoculés avec 2.10^7 vge développent une virémie dont le pic se situe entre 5 et 10 jours.

[2] = system: Candida albicans ATCC 1031; assay: Disinfection time test (Essai 2, Tables D-F), reaction at 22°, subcultures 72 h at 37°C; assay type: cell-based
Experimental: Un autre essai a été réalisé à partir des solutions suivantes : • 100 ml d'une solution à 0,1 % de digluconate de chlorhexidine (pH 6) et • 100 ml d'une solution à 0,1 % de Bardac 22®.
Les tests ont été réalisés conformément au protocole décrit dans le Chapitre I/2.1 et 2.2 de Richtlinien für die Prüfung und Bewertung chemischer Desinfektionsverfahren der DGHM, Stand 1.1., 1981).
Les tests dont les résultats sont illustrés aux Tableaux D, E et F ont été réalisés à une température de réaction de 22° avec une incubation des sous-cultures 72 heures à 37°C avec comme substances inactivantes : Tween® 80 3 % + saponine 3 % + cystéine 0,1 % + histidine 0,1 %; ces Tableaux illustrent respectivement l'activité bactéricide et fongicide d'une solution aqueuse à 0,1 % de digluconate de chlorhexidine, d'une solution aqueuse à 0,1 % de Bardac 22® et d'un mélange à part égale des deux composés et montrent l'action des antiseptiques précités, en fonction du temps de contact, et font apparaître la même synergie d'action de l'association que ci-dessus, dans la mesure où l'association des deux composés permet de diminuer significativement leur concentration, pour l'obtention d'un même effet. TABLEAU D

[3] = system: Herpès virus Hominis type 1, souche Bey (HSV1); assay: Immediate virucidal action on HSV1, plaque count on Vero cells; assay type: cell-based; conditions: Bardac® 0,02 %; 3 boîtes de culture; J4
Experimental: Il s'agit d'une souche d'Herpès virus Hominis type 1, souche Bey (HSV1), elle est entretenue sur cellules fibroblastiques humaines ou sur cellules KB et a subi un nombre de passages importants, sur l'un ou l'autre type de cellules.
On utilise un lot viral congelé à -80°C après obtention d'un effet cytopathique ayant atteint au moins 80 % des cellules, sans une centrifugation préalable, qui aurait débarrassé l'inoculum de la majorité des débris cellulaires; en effet, il apparaît que l'infectivité du virus disparaît très rapidement lorsqu'il est extracellulaire, et, en conséquence, on est plus près de la réalité de l'infection in vivo lorsqu'on utilise un lot viral dans lequel des virions peuvent encore se trouver dans des débris cellulaires.
Ce lot a été titré, après répartition en aliquots de 0,5 ml, conservés à -80°C, sur cellules fibroblastiques humaines : • . par dilution de 10 en 10 et inoculations de 8 tubes de cultures par dilution : 10^6/ml; • . par inoculation de cultures en boîtes de Pétri (35 mm) et adjonction de sérum anti-HSV1 dans le surnageant pour neutraliser les virions qui pourraient être libérés dans le milieu liquide, permettant ainsi de compter des plages : 100 à 150 unités formant plages par boîte inoculée avec 0,5 ml d'une solution virale diluée à 10^-4. […]

[4] = system: antigène du virus de l'hépatite B (AgHBs); assay: In vitro degradation of hepatitis B virus antigen (AgHBs): virucide + patient human serum (1/1000); assay type: biochemical; conditions: Bardac® 0,2 %
Description: I - Action sur la dégradation in vitro de l'antigène du virus de l'hépatite B (AgHBs) du virus de l'hépatite B : virucide + sérum humain de malade (1/1000ème).

For `CCCCCCCCCC[N+](C)(C)CCCCCCCCCC` [Bardac®, chlorure de didécyldiméthylammonium], the “canards protégés” value [1] was 4/4, the croissance ([2]; Conc. 0,1 % (vol/vol), 1 min) was “+” and the croissance ([2]; Conc. 0,1 % (vol/vol), 3 min) was “+”. The croissance ([2]; Conc. 0,1 % (vol/vol), 5 min) was “+”, the croissance ([2]; Conc. 0,1 % (vol/vol), 15 min) was “+” and the croissance ([2]; Conc. 0,1 % (vol/vol), 30 min) was “+”. For the same compound, the croissance ([2]; Conc. 0,1 % (vol/vol), 60 min) was “+”, the croissance ([2]; Conc. 0,05 % (vol/vol), 1 min) was “+” and the croissance ([2]; Conc. 0,5 % (vol/vol), 1 min) was “+”. The croissance ([2]; Conc. 0,05 % (vol/vol), 3 min) was “+”, the croissance ([2]; Conc. 0,5 % (vol/vol), 3 min) was “+” and the croissance ([2]; Conc. 0,05 % (vol/vol), 5 min) was “+”. For the same compound, the croissance ([2]; Conc. 0,5 % (vol/vol), 5 min) was “+”, the croissance ([2]; Conc. 0,05 % (vol/vol), 15 min) was “+” and the croissance ([2]; Conc. 0,5 % (vol/vol), 15 min) was “+”. The croissance ([2]; Conc. 0,05 % (vol/vol), 30 min) was “+”, the croissance ([2]; Conc. 0,5 % (vol/vol), 30 min) was “+” and the croissance ([2]; Conc. 0,05 % (vol/vol), 60 min) was “+”. The croissance ([2]; Conc. 0,5 % (vol/vol), 60 min) was “+”, the croissance ([2]; Conc. 1 % (vol/vol), 1 min) was “+” and the croissance ([2]; Conc. 1 % (vol/vol), 3 min) was “+”. The croissance ([2]; Conc. 1 % (vol/vol), 5 min) was “+”, the croissance ([2]; Conc. 1 % (vol/vol), 15 min) was “+” and the croissance ([2]; Conc. 1 % (vol/vol), 30 min) was “-”. The croissance ([2]; Conc. 1 % (vol/vol), 60 min) was “-”, the croissance ([2]; Conc. 5 % (vol/vol), 1 min) was “+” and the croissance ([2]; Conc. 5 % (vol/vol), 3 min) was “+”. The croissance ([2]; Conc. 5 % (vol/vol), 5 min) was “-”, the croissance ([2]; Conc. 5 % (vol/vol), 15 min) was “-” and the croissance ([2]; Conc. 5 % (vol/vol), 30 min) was “-”. For the same compound, the croissance ([2]; Conc. 5 % (vol/vol), 60 min) was “-”, the croissance ([2]; Conc. 10 % (vol/vol), 1 min) was “-” and the croissance ([2]; Conc. 10 % (vol/vol), 3 min) was “-”. For the same compound, the croissance ([2]; Conc. 10 % (vol/vol), 5 min) was “-”, the croissance ([2]; Conc. 10 % (vol/vol), 15 min) was “-” and the croissance ([2]; Conc. 10 % (vol/vol), 30 min) was “-”. The croissance ([2]; Conc. 10 % (vol/vol), 60 min) was “-”, the croissance ([2]; Conc. 25 % (vol/vol), 1 min) was “-” and the croissance ([2]; Conc. 25 % (vol/vol), 3 min) was “-”. For the same compound, the croissance ([2]; Conc. 25 % (vol/vol), 5 min) was “-”, the croissance ([2]; Conc. 25 % (vol/vol), 15 min) was “-” and the croissance ([2]; Conc. 25 % (vol/vol), 30 min) was “-”. The croissance ([2]; Conc. 25 % (vol/vol), 60 min) was “-”, the “Nombre d'unités formant plage par millilitre de virus dilué à 10^-4” value [3] was 30/125/45 and 26/17/20 and the “AgHBs résiduel (ratio)” value [4] was 1,35.
In the case of `[H]/N=C(\N/C(=N/[H])NCCCCCCNC(=N)NC(=N)Nc1ccc(Cl)cc1)Nc1ccc(Cl)cc1` [Chlorhexidine, digluconate de chlorhexidine, reference compound], the croissance ([2]; Conc. 0,1 % (vol/vol), 1 min) is reported as “+”, the croissance ([2]; Conc. 0,1 % (vol/vol), 3 min) is reported as “+” and the croissance ([2]; Conc. 0,1 % (vol/vol), 5 min) is reported as “+”. For the same compound, the croissance ([2]; Conc. 0,1 % (vol/vol), 15 min) was “+”, the croissance ([2]; Conc. 0,1 % (vol/vol), 30 min) was “+” and the croissance ([2]; Conc. 0,1 % (vol/vol), 60 min) was “+”. The croissance ([2]; Conc. 0,05 % (vol/vol), 1 min) was “+”, the croissance ([2]; Conc. 0,5 % (vol/vol), 1 min) was “+” and the croissance ([2]; Conc. 0,05 % (vol/vol), 3 min) was “+”. For the same compound, the croissance ([2]; Conc. 0,5 % (vol/vol), 3 min) was “+”, the croissance ([2]; Conc. 0,05 % (vol/vol), 5 min) was “+” and the croissance ([2]; Conc. 0,5 % (vol/vol), 5 min) was “+”. For the same compound, the croissance ([2]; Conc. 0,05 % (vol/vol), 15 min) was “+”, the croissance ([2]; Conc. 0,5 % (vol/vol), 15 min) was “+” and the croissance ([2]; Conc. 0,05 % (vol/vol), 30 min) was “+”. For the same compound, the croissance ([2]; Conc. 0,5 % (vol/vol), 30 min) was “+”, the croissance ([2]; Conc. 0,05 % (vol/vol), 60 min) was “+” and the croissance ([2]; Conc. 0,5 % (vol/vol), 60 min) was “+”. For the same compound, the croissance ([2]; Conc. 1 % (vol/vol), 1 min) was “+”, the croissance ([2]; Conc. 1 % (vol/vol), 3 min) was “+” and the croissance ([2]; Conc. 1 % (vol/vol), 5 min) was “+”. For the same compound, the croissance ([2]; Conc. 1 % (vol/vol), 15 min) was “+”, the croissance ([2]; Conc. 1 % (vol/vol), 30 min) was “+” and the croissance ([2]; Conc. 1 % (vol/vol), 60 min) was “-”. For the same compound, the croissance ([2]; Conc. 5 % (vol/vol), 1 min) was “+”, the croissance ([2]; Conc. 5 % (vol/vol), 3 min) was “+” and the croissance ([2]; Conc. 5 % (vol/vol), 5 min) was “+”. The croissance ([2]; Conc. 5 % (vol/vol), 15 min) was “+”, the croissance ([2]; Conc. 5 % (vol/vol), 30 min) was “-” and the croissance ([2]; Conc. 5 % (vol/vol), 60 min) was “-”. For the same compound, the croissance ([2]; Conc. 10 % (vol/vol), 1 min) was “+”, the croissance ([2]; Conc. 10 % (vol/vol), 3 min) was “+” and the croissance ([2]; Conc. 10 % (vol/vol), 5 min) was “+”. For the same compound, the croissance ([2]; Conc. 10 % (vol/vol), 15 min) was “+”, the croissance ([2]; Conc. 10 % (vol/vol), 30 min) was “-” and the croissance ([2]; Conc. 10 % (vol/vol), 60 min) was “-”. The croissance ([2]; Conc. 25 % (vol/vol), 1 min) was “+”, the croissance ([2]; Conc. 25 % (vol/vol), 3 min) was “+” and the croissance ([2]; Conc. 25 % (vol/vol), 5 min) was “+”. The croissance ([2]; Conc. 25 % (vol/vol), 15 min) was “-”, the croissance ([2]; Conc. 25 % (vol/vol), 30 min) was “-” and the croissance ([2]; Conc. 25 % (vol/vol), 60 min) was “-”.
